Data on six molecules can be found in patent publication US5236912A, “Antiandrogenic [3,2-c]pyrazole and [3,2-d]triazole steroids” (Schering Aktiengesellschaft, priority 1990, dated 1993).

The test system of assay [1] is orchiectomized, testosterone propionate-substituted rats. Briefly: classical antiandrogen test on orchiectomized, testosterone propionate-substituted rats (inhibition of prostate weight). It counts as in vivo. The note with it: 3 mg s.c.; for Antiandrogen Test: % Inhibition of Prostate Weight: orchiectomized, testosterone propionate-substituted rats (0.1 mg/animal/day), seven day treatment. The method, then: These two compounds, the classical antiandrogen test on orchiectomized, testosterone propionate-substituted rats (dose: 0.1 mg/animal/day) show, after a seven day treatment (s.c.) with 3 mg/animal/day) of the antiandrogen, merely about 30% of the antiandrogenic potency of cyproterone acetate (17α-acetoxy-6-chlor-1α,2α-methylene-4,6-pregnadiene-3,20-dione) which constitutes the standard antiandrogen (Friedmund Neumann, Rudolf Wiechert, "Die Geschichte von Cyproteronacetat, Ungewoehnliche Wege bei der Entwicklung eines Arzneimittels" [The History of Cyproterone Acetate, the Development of a Medicine Along Unusual Routes], MPS Medizinisch-Pharmazeutische Studiengesellschaft e.V. [Association for Medical-Pharmaceutical Studies] Mainz, Mainz (1984).

Assay [2] has as its system testosterone levels. Briefly: peripheral selectivity / counter regulation: testosterone levels in rats after administration of the compound. It counts as in vivo. The note with it: for Counter Regulation: testosterone levels 24 hours after 10 mg s.c., lack of counter regulation = peripheral selectivity. On the procedure:
In order to test peripheral selectively, the testosterone levels are measured in rats 24 hours after administration of 10 mg s.c. of the compound: lack of counter regulation is evaluated as peripheral selectively.

Assay [3] relates to testosterone levels. The note with it: in words, background statement; cited from earlier work.
The subject of assay [4] is orchiectomized, testosterone propionate-substituted rats. The note with it: compound described in EP 0 207 375 A1; cited from earlier work.

The structures appear in SMILES notation. “And” between values parts separate entries of the source, which are not always exact repeats. Identical values can stand only once.

As to `CC12Cc3cn(S(C)(=O)=O)nc3C=C1CCC1C2CCC2(C)C1C=CC2(C)O` (stereo not drawn) [A, 1'-mesyl-17α-methyl-1'H-androsta-4,15-dieno[3,2-c]pyrazol-17β-ol], the “Antiandrogen Test: % Inhibition of Prostate Weight” value in assay [1] is on record as 80%. Further, the “Counter Regulation” value in the assay with testosterone levels [2] was “No”.
For `CC12Cc3cn(S(C)(=O)=O)nc3C=C1C1(CC1)CC1C2CCC2(C)C1CCC2(C)O` (stereo not drawn) [B, 6,6-ethylene-1'-mesyl-17α-methyl-1'H-androst-4-eno[3,2-c]pyrazol-17β-ol], in that order: 73% and “No”.
In the case of `CC1CC2=Cc3nn(S(C)(=O)=O)cc3CC2(C)C2CCC3(C)C(CCC3(C)O)C12` (stereo not drawn) [C, 7α,17α-dimethyl-1'-mesyl-1'H-androst-4-eno[3,2-c]pyrazol-17β-ol], in assay [1], the “Antiandrogen Test: % Inhibition of Prostate Weight” value turned out to be 53%. Besides, the “Counter Regulation” value in the assay on testosterone levels [2] is “No”.
Take `CC(=O)O[C@]1(C(C)=O)CC[C@H]2[C@@H]3C=C(Cl)C4=CC(=O)[C@@H]5C[C@@H]5[C@]4(C)[C@H]3CC[C@@]21C` [Cyproterone Acetate, 17α-acetoxy-6-chlor-1α,2α-methylene-4,6-pregnadiene-3,20-dione]: the “Antiandrogen Test: % Inhibition of Prostate Weight, comparison Cyproterone Acetate (value in parentheses)” value in assay [1] (cyproterone acetate comparison value) is 97% and 86% and 87% and 95% and 100%. Further, in the assay on testosterone levels [3], the “effect on the hypothalamus-hypophysis system” value was “affecting, as does the latter compound, the hypothalamus-hypophysis system”.
On to `CC12Cc3nn(S(C)(=O)=O)nc3C=C1CCC1C2CCC2(C)C1C=CC2(C)O` (stereo not drawn) [D, 2'-mesyl-17α-methyl-2'H-triazolo[4',5':2,3]androsta-4,15-dien-17β-ol], for which the “Antiandrogen Test: % Inhibition of Prostate Weight” value in assay [1] was 97%. In addition, the “Counter Regulation” value in the assay on testosterone levels [2] is given as “No”.
In the case of `CC1=C2CCC3C(CCC4(C)C3CCC4(C)O)C2(C)Cc2cn(S(C)(=O)=O)nc21` (stereo not drawn) [E, 4,17α-dimethyl-1'-mesyl-1'H-androst-4-eno[3,2-c]pyrazol-17β-ol], in assay [1], the “Antiandrogen Test: % Inhibition of Prostate Weight” value was determined as 88%. Also, in the assay with testosterone levels [2] (central effect (counter regulation by feedback)), the “testosterone level in the serum” value is on record as “raises the testosterone level in the serum”. Besides, the peripheral selectivity result in the assay on testosterone levels [2] (lack of counter regulation is evaluated as peripheral selectivity) is reported as “no peripheral selectivity”. The “Counter Regulation” value with testosterone levels [2] is given as “Yes”. In assay [4], the “antiandrogen activity compared with cyproterone acetate” value is “comparable to cyproterone acetate”.
